Laboratory results from US20170311605A1, “SYNERGISTIC BACILLUS THURINGIENSIS SUBSP. AIZAWAI AND FLUBENDIAMIDE MIXTURES FOR DIAMONDBACK MOTH, BEET ARMYWORM, SOYBEAN LOOPER, CORN EARWORM, AND SUGARCANE BORER CONTROL” (Valent BioSciences LLC, priority 2016, published 2017).
Where two headings read alike, the source gives them in different places.

Tests used:
diamondback moth larvae = test: leaf dip test, diamondback moth larvae; format: in vivo; conditions: Plutella xylostella, foliar, Bta 2.7 ppm, flubendiamide 0.215 ppm, mixture 2.7 ppm + 0.215 ppm, read-out: % Efficacy
Procedure: (§1) The following examples illustrate the synergy of Bacillus thuringiensis subsp. aizawai and flubendiamide when controlling diamondback moth, beet armyworm, soybean looper, corn earworm, and sugarcane borer. Xentari® was used as the source of Bacillus thuringiensis subsp. aizawai and Belt® was used as the source of flubendiamide. The present invention is not limited to the products or formulation types used herein. In each example below, the studies were conducted as follows.
For these tests, standardized laboratory leaf dip methods were used to inoculate plant material with treatment(s). Dry, treated leaves were placed into Petri dishes (100×25 mm) containing filter paper wetted with 500 μl of distilled H2O (“dH2O”). […] Synergy ratings were calculated for each test. […]
(§2) % Cexp=A+B−(AB/100), where % Cexp is the expected efficacy and “in which A and B are the control levels given by the single [insecticides]. […] Adopting a conservative approach, Applicant determined synergy to be present at ratios of ≧1.15. […]
In order to determine synergy, rates below normal field rate ranges must be used. If normal field rate ranges are used, all of the larvae would die (combining a lethal or near lethal dose of Bacillus thuringiensis subsp. aizawai with a lethal dose of flubendiamide would most likely lead to larvae death) in every treatment and synergy would not be able to be determined. […]

beet armyworm larvae = test: leaf dip test, beet armyworm larvae; format: in vivo; conditions: Spodoptera exigua, foliar, Bta 2.7 ppm, flubendiamide 0.49 ppm, mixture 2.7 ppm + 0.49 ppm, read-out: % Efficacy
Procedure: as §1
(§3) For these tests, standardized laboratory leaf dip methods were used to inoculate plant material with treatment(s). Dry, treated leaves were placed into Petri dishes (100×25 mm) containing filter paper wetted with 500 μl of distilled H2O (“dH2O”). Each dish was then infested with between 5 and 10 larvae, dependent on species. Efficacy ratings were taken at specified intervals. Synergy ratings were calculated for each test.
as §2

cabbage looper larvae = test: leaf dip test, cabbage looper larvae; format: in vivo; conditions: Trichoplusia ni, foliar, Bta 2.7 ppm, flubendiamide 0.49 ppm, mixture 2.7 ppm + 0.49 ppm, read-out: % Efficacy
sugarcane borer larvae = test: leaf dip test, sugarcane borer larvae; format: in vivo; conditions: Diatraea saccharalis, foliar, Bta 27 ppm, flubendiamide 2.15 ppm, mixture 27 ppm + 2.15 ppm, read-out: % Efficacy
Procedure: as §1, §3, §2

[1] = tested on: southwestern corn borer larvae; test: leaf dip test, southwestern corn borer larvae; format: in vivo; conditions: foliar, Bta 2.7 ppm, flubendiamide 0.39 ppm, mixture 2.7 ppm + 0.39 ppm, read-out: % Efficacy
soybean looper larvae = test: leaf dip test, soybean looper larvae; format: in vivo, Chrysodeixis includens; conditions: foliar, Bta 27 ppm, flubendiamide 3.9 ppm, mixture 27 ppm + 3.9 ppm, read-out: % Efficacy
Procedure: as §1, §3, §2

corn earworm larvae = test: leaf dip test, corn earworm larvae; format: in vivo; conditions: Helicoverpa zea, foliar, Bta 27 ppm, flubendiamide 0.975 ppm, mixture 27 ppm + 0.975 ppm, read-out: % Efficacy
Procedure: as §1, §3, §2

## Cc1cc(C(F)(C(F)(F)F)C(F)(F)F)ccc1NC(=O)c1cccc(I)c1C(=O)NC(C)(C)CS(C)(=O)=O [Flubendiamide, 3-iodo-N′-(2-mesyl-1,1-dimethylethyl)-N-{4-[1,2,2,2-tetrafluoro-1-(trifluoromethyl)ethyl]-o-tolyl}phthalamide]
Diamondback moth larvae; 24 h after treatment
  Emax at 0.215 ppm: 11%
Diamondback moth larvae; 48 h after treatment
  Emax at 0.215 ppm: 25%
Beet armyworm larvae; 24 h after treatment
  Emax at 0.49 ppm: 12%
Beet armyworm larvae; 48 h after treatment
  Emax at 0.49 ppm: 26%
Cabbage looper larvae; 24 h after treatment
  Emax at 0.49 ppm: 4%
Cabbage looper larvae; 48 h after treatment
  Emax at 0.49 ppm: 21%
Sugarcane borer larvae; 24 h after treatment
  Emax at 2.15 ppm: 44%
Sugarcane borer larvae; 48 h after treatment
  Emax at 2.15 ppm: 68%
[1]; 24 h after treatment
  Emax at 0.39 ppm: 40%
[1]; 48 h after treatment
  Emax at 0.39 ppm: 49%
Soybean looper larvae; 24 h after treatment
  Emax at 3.9 ppm: 3%
Soybean looper larvae; 48 h after treatment
  Emax at 3.9 ppm: 20%
Corn earworm larvae; 24 h after treatment
  Emax at 0.975 ppm: 16%
Corn earworm larvae; 48 h after treatment
  Emax at 0.975 ppm: 29%
